Source: US8017637B2, “Inhibitors of cdc phosphatases” (Ipsen Pharma S.A.S., priority 2004, dated 2011)

Tests used:
[1] = biological target: T1, purified recombinant enzyme Cdc25-C (MBP-Cdc25C) (Homo sapiens, UniProt P30307); assay: Measurement of the phosphatase activity of the purified recombinant enzyme Cdc25C (OMFP dephosphorylation, fluorescence); assay type: biochemical; conditions: OMFP 500 μM, 4 hours at 30° C.
T1 construct: made in house
T1 sequence (P30307 1-473): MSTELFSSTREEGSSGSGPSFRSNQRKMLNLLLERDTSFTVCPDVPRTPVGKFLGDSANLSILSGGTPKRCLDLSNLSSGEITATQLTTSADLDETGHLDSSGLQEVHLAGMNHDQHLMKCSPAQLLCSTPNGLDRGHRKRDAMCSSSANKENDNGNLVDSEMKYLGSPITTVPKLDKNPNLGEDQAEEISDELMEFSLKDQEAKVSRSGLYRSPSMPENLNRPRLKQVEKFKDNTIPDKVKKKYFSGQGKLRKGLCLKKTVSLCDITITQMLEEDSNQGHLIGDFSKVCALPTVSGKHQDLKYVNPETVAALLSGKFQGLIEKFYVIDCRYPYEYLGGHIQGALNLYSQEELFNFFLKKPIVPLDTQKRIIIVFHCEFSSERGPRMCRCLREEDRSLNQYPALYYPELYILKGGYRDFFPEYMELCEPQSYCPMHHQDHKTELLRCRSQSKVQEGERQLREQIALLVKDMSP
Description: i) Measurement of the Phosphatase Activity of the Purified Recombinant Enzyme Cdc25C
The phosphatase activity of the protein MBP-Cdc25C is evaluated by the dephosphorylation of 3-O-methylfluorescein-phosphate (OMFP) to 3-O-methylfluorescein (OMF) with a determination of the fluorescence at 475 nm of the reaction product. This test makes it possible to identify inhibitors of the recombinant enzyme cdc25. The preparation of the fusion protein MBP-Cdc25C is described in the Patent Application PCT WO 01/44467.
The reaction is carried out in 384-well plate format at a final volume of 50 μl. The protein MBP-Cdc25C (prepared as described above) is preserved in the following elution buffer: 20 mM Tris-HCl pH 7.4; 250 mM NaCl; 1 mM EDTA; 1 mM of dithiothreitol (DTT); 10 mM maltose. It is diluted to a concentration of 60 μM in the following reaction buffer: 50 mM Tris-HCl pH 8.2; 50 mM NaCl; 1 mM DTT; 20% glycerol. Measurement of the background noise is carried out with the buffer without the addition of the enzyme. The products are tested at decreasing concentrations starting from 40 μM. The reaction is initiated by the addition of an OMFP solution at 500 μM final (prepared extemporaneously from a 12.5 mM stock solution in 100% DMSO (Sigma #M2629)). After 4 hours at 30° C. in a single-use 384-well plate, the fluorescence measured at OD 475 nm is read using a Victor^2 plate reader (EGG-Wallac). The determination of the concentration inhibiting the enzyme reaction by 50% is calculated from three independent experiments. Only the values contained in the linear part of the sigmoid are retained for linear regression analysis.

[2] = test system: Mia-Paca2 lines (human pancreatic cancer cells); assay: Anti-proliferative activity, WST1 colorimetric test, Mia-Paca2 cells; assay type: cell-based; conditions: MIA PaCa-2, 96 hours treatment, up to 10 μM, read-out: IC50 on the cell proliferation of the Mia-Paca2 lines
Description: (§1) ii) Characterization of Anti-Proliferative Activity:
(§2) By way of example, the effect of a treatment by the compounds of the examples described previously on two lines of human Mia-Paca2 and DU145 cells will be studied. The cell lines DU145 (human prostate cancer cells) and Mia-PaCa2 (human pancreatic cancer cells) were acquired from the American Tissue Culture Collection (Rockville, Md., USA). The cells placed in 80 μl of Dulbecco's Modified Eagle medium (Gibco-Brl, Cergy-Pontoise, France) completed with 10% foetal calf serum inactivated by heating (Gibco-Brl, Cergy-Pontoise, France), 50,000 units/l of penicillin and 50 mg/l streptomycin (Gibco-Brl, Cergy-Pontoise, France), and 2 mM of glutamine (Gibco-Brl, Cergy-Pontoise, France) were seeded on a 96-well plate on day 0. The cells were treated on day 1 for 96 hours at increasing concentrations of each of the compounds to be tested up to 10 μM. At the end of the of this period, quantification of the cell proliferation is evaluated by a colorimetric test based on the cleavage of the tetrazolium salt WST1 by the mitochondrial dehydrogenases in the viable cells leading to the formation of formazan (Boehringer Mannheim, Meylan, France). These tests are carried out in duplicate with 8 determinations per concentration tested. For each compound to be tested, the values included in the linear part of the sigmoid were retained for linear regression analysis and used in order to estimate the inhibitory concentration IC50. The products are solubilized in dimethylsulphoxide (DMSO) at to 10^−2M and finally used in culture with 0.1% DMSO.

[3] = test system: DU-145 lines (human prostate cancer cells); assay: Anti-proliferative activity, WST1 colorimetric test, DU145 cells; assay type: cell-based; conditions: 96 hours treatment, up to 10 μM, read-out: IC50 on the cell proliferation of the DU-145 lines
Description: as §1, §2

Question: With `CN(CCCNC1=CC(=O)c2sc(C(=O)NCCCN3CCCC3=O)nc2C1=O)CCCNC1=CC(=O)c2sc(C(=O)NCCCN3CCCC3=O)nc2C1=O` [Example 7, 5.5′-[(methylimino)bis(propane-3,1-diylimino)]bis{4,7-dioxo-N-[3-(2-oxopyrrolidin-1-yl)propyl]-4,7-dihydro-1,3-benzothiazole-2-carboxamide}] as the molecule, how does the IC50 [1] read?
Answer: Its IC50 is ≤ 1 µM.

Question: What about the IC50 [2] of the same molecule?
Answer: The IC50 was ≤ 10 µM.

Question: And the IC50 [3]?
Answer: The IC50 was ≤ 10 µM.

Question: And the melting point?
Answer: Its melting point is 185 to 186 °C.

Question: For `CN(CCCNC1=CC(=O)c2nc(-c3cc(F)ccc3F)oc2C1=O)CCCNC1=CC(=O)c2nc(-c3cc(F)ccc3F)oc2C1=O` [Example 8, 6.6′-[(methylimino)bis(propane-3,1-diylimino)]-bis[2-(2,5-difluorophenyl)-1,3-benzoxazole-4,7-dione]], which IC50 [1] is on record?
Answer: Its IC50 is ≤ 1 µM.

Question: And the IC50 [2]?
Answer: Its IC50 is ≤ 10 µM.

Question: And the IC50 [3]?
Answer: Its IC50 is ≤ 10 µM.

Question: What about the melting point of the same molecule?
Answer: The melting point was 209 to 210 °C.

Question: What does the source list for `CN(CCCNC1=CC(=O)c2nc(Cc3c(F)cccc3Cl)oc2C1=O)CCCNC1=CC(=O)c2nc(Cc3c(F)cccc3Cl)oc2C1=O` [Example 10, 6.6′-[(methylimino)bis(propane-3,1-diylimino)]bis[2-(2-chloro-6-fluorobenzyl)-1,3-benzoxazole-4,7-dione]]?
Answer: IC50 [1]: ≤ 1 µM; IC50 [2]: ≤ 10 µM; IC50 [3]: ≤ 10 µM; melting point: 165 to 167 °C

Question: Which results are given for `CN(CCCNC1=CC(=O)c2nc(-c3cccc(Br)c3)oc2C1=O)CCCNC1=CC(=O)c2nc(-c3cccc(Br)c3)oc2C1=O` [Example 11, 6.6′-[(methylimino)bis(propane-3,1-diylimino)]-bis[2-(3-bromophenyl)-1,3-benzoxazole-4,7-dione]]?
Answer: IC50 [1]: ≤ 5 µM; IC50 [2]: ≤ 10 µM; IC50 [3]: ≤ 10 µM; melting point: 199 to 200 °C

Question: With `CN(CCCNC1=CC(=O)c2nc(-c3cccc(Cl)c3)oc2C1=O)CCCNC1=CC(=O)c2nc(-c3cccc(Cl)c3)oc2C1=O` [Example 14, 6.6′-[(methylimino)bis(propane-3,1-diylimino)]-bis[2-(3-chlorophenyl)-1,3-benzoxazole-4,7-dione]] as the molecule, how does the IC50 [1] read?
Answer: Its IC50 is ≤ 1 µM.

Question: And the IC50 [2]?
Answer: The IC50 was ≤ 10 µM.

Question: And the IC50 [3]?
Answer: Its IC50 is ≤ 10 µM.

Question: And the melting point?
Answer: The melting point was 196 to 197 °C.

Question: Which results are given for `CN(CCCNC1=CC(=O)c2nc(-c3ccc(F)cc3)oc2C1=O)CCCNC1=CC(=O)c2nc(-c3ccc(F)cc3)oc2C1=O` [Example 15, 6.6′-[(methylimino)bis(propane-3,1-diylimino)]-bis[2-(4-fluorophenyl)-1,3-benzoxazole-4,7-dione]]?
Answer: IC50 [1]: ≤ 1 µM; IC50 [2]: ≤ 10 µM; IC50 [3]: ≤ 10 µM; melting point: 204 to 205 °C

Question: For `Cc1nc2c(s1)C(=O)C=C(NCCCN(CCCNC1=CC(=O)c3sc(C)nc3C1=O)CCCNC1=CC(=O)c3sc(C)nc3C1=O)C2=O` [Example 18], which IC50 [1] is on record?
Answer: The IC50 was ≤ 1 µM.

Question: And the IC50 [2]?
Answer: The IC50 was ≤ 10 µM.

Question: And the IC50 [3]?
Answer: Its IC50 is ≤ 10 µM.

Question: And the melting point?
Answer: The melting point was 131 to 132 °C.

Question: What does the source list for `Cc1nc2c(s1)C(=O)C=C(NCC1CCC(CNC3=CC(=O)c4sc(C)nc4C3=O)CC1)C2=O` (stereo not shown) [Example 20, 5.5′-[cyclohexane-1,4-diylbis(methyleneimino)]bis(2-methyl-1,3-benzothiazole-4,7-dione)]?
Answer: IC50 [1]: ≤ 1 µM; IC50 [2]: ≤ 10 µM; IC50 [3]: ≤ 10 µM; melting point: > 240 °C

Question: With `CN(CCCNC1=CC(=O)c2scnc2C1=O)CCCNC1=CC(=O)c2scnc2C1=O` [Example 25, 5.5′-[(methylimino)bis(propane-3,1-diylimino)]bis(1,3-benzothiazole-4,7-dione)] as the molecule, how does the IC50 [1] read?
Answer: Its IC50 is ≤ 1 µM.

Question: And the IC50 [2]?
Answer: Its IC50 is ≤ 10 µM.

Question: What about the IC50 [3] of the same molecule?
Answer: Its IC50 is ≤ 10 µM.

Question: And the melting point?
Answer: The melting point was 223 to 224 °C.

Question: With `CN(CCCNC1=CC(=O)c2sc(C(=O)N3CCOCC3)nc2C1=O)CCCNC1=CC(=O)c2sc(C(=O)N3CCOCC3)nc2C1=O` [Example 26, 5.5′-[(methylimino)bis(propane-3,1-diylimino)]bis[2-(morpholin-4-ylcarbonyl)-1,3-benzothiazole-4,7-dione]] as the molecule, how does the IC50 [1] read?
Answer: The IC50 was ≤ 1 µM.

Question: What about the IC50 [2] of the same molecule?
Answer: The IC50 was ≤ 10 µM.

Question: What about the IC50 [3] of the same molecule?
Answer: Its IC50 is ≤ 10 µM.

Question: And the melting point?
Answer: Its melting point is 207 to 208 °C.

Question: For `CN(CCCNC1=CC(=O)c2nc(C(=O)N3CCCC3)sc2C1=O)CCCNC1=CC(=O)c2nc(C(=O)N3CCCC3)sc2C1=O` [Example 31, 6.6′-[(methylimino)bis(propane-3,1-diylimino)]bis[2-(pyrrolidin-1-ylcarbonyl)-1,3-benzothiazole-4,7-dione]], which IC50 [1] is on record?
Answer: Its IC50 is ≤ 1 µM.

Question: And the IC50 [2]?
Answer: Its IC50 is ≤ 10 µM.

Question: What about the IC50 [3] of the same molecule?
Answer: Its IC50 is ≤ 10 µM.

Question: And the melting point?
Answer: The melting point was 237 to 238 °C.

Question: For `CN(CCCNC1=CC(=O)c2sc(C(=O)Nc3ccc(F)cc3)nc2C1=O)CCCNC1=CC(=O)c2sc(C(=O)Nc3ccc(F)cc3)nc2C1=O` [Example 32, 5.5′-[(methylimino)bis(propane-3,1-diylimino)]bis[N-(4-fluorophenyl)-4,7-dioxo-4,7-dihydro-1,3-benzothiazole-2-carboxamide]], which IC50 [1] is on record?
Answer: Its IC50 is ≤ 1 µM.

Question: What about the IC50 [2] of the same molecule?
Answer: The IC50 was ≤ 10 µM.

Question: What about the IC50 [3] of the same molecule?
Answer: The IC50 was ≤ 10 µM.

Question: And the melting point?
Answer: The melting point was 262 to 263 °C.

Question: Which results are given for `COc1ccc(CNC(=O)c2nc3c(s2)C(=O)C=C(NCCCN(C)CCCNC2=CC(=O)c4sc(C(=O)NCc5ccc(OC)cc5)nc4C2=O)C3=O)cc1` [Example 33, 5.5′-[(methylimino)bis(propane-3,1-diylimino)]bis[N-(4-methoxybenzyl)-4,7-dioxo-4,7-dihydro-1,3-benzothiazole-2-carboxamide]]?
Answer: IC50 [1]: ≤ 1 µM; IC50 [2]: ≤ 10 µM; IC50 [3]: ≤ 10 µM; melting point: 174 to 175 °C

Question: With `CN(CCCNC1=CC(=O)c2sc(C(=O)NC3CCCCC3)nc2C1=O)CCCNC1=CC(=O)c2sc(C(=O)NC3CCCCC3)nc2C1=O` [Example 35, 5.5′-[(methylimino)bis(propane-3,1-diylimino)]bis(N-cyclohexyl-4,7-dioxo-4,7-dihydro-1,3-benzothiazole-2-carboxamide)] as the molecule, how does the IC50 [1] read?
Answer: The IC50 was ≤ 1 µM.

Question: And the IC50 [2]?
Answer: The IC50 was ≤ 10 µM.

Question: What about the IC50 [3] of the same molecule?
Answer: The IC50 was ≤ 10 µM.

Question: And the melting point?
Answer: Its melting point is 145 to 146 °C.

Question: Which IC50 [1] does the source give for `COc1ccc(C(=O)N2CCN(C(=O)c3nc4c(s3)C(=O)C=C(NCCCN(C)CCCNC3=CC(=O)c5sc(C(=O)N6CCN(C(=O)c7ccc(OC)cc7)CC6)nc5C3=O)C4=O)CC2)cc1` [Example 36, 5.5′-[(methylimino)bis(propane-3,1-diylimino)]bis(2-([4-(4-methoxybenzoyl)piperazin-1-yl]carbonyl)-1,3-benzothiazole-4,7-dione)] here?
Answer: Its IC50 is ≤ 1 µM.

Question: What about the IC50 [2] of the same molecule?
Answer: Its IC50 is ≤ 10 µM.

Question: What about the IC50 [3] of the same molecule?
Answer: The IC50 was ≤ 10 µM.

Question: What about the melting point of the same molecule?
Answer: Its melting point is 202 to 203 °C.

Question: For `CN(CCCNC1=CC(=O)c2sc(C(=O)N3CCN(C(=O)c4ccco4)CC3)nc2C1=O)CCCNC1=CC(=O)c2sc(C(=O)N3CCN(C(=O)c4ccco4)CC3)nc2C1=O` [Example 37, 5.5′-[(methylimino)bis(propane-3,1-diylimino)]bis(2-{[4-(2-furoyl)piperazin-1-yl]carbonyl}-1,3-benzothiazole-4,7-dione)], which IC50 [1] is on record?
Answer: The IC50 was ≤ 1 µM.

Question: And the IC50 [2]?
Answer: The IC50 was ≤ 10 µM.

Question: What about the IC50 [3] of the same molecule?
Answer: Its IC50 is ≤ 10 µM.

Question: What about the melting point of the same molecule?
Answer: The melting point was 173 to 174 °C.
